According to ChEMBL document CHEMBL5678796, “A highly potent and selective farnesyltransferase inhibitor ABT-100 in preclinical studies” (Anticancer Drugs, 2005):

Legend:
[1] = Inhibition of FTase in human HCT-116 cells expressing low level of P-gp1 using Ras as substrate assessed as inhibition of substrate post-translation processing in presence of 10% FBS by immunoblot analysis; assay type: cell-based
[2] = Inhibition of FTase in human HCT-15 cells expressing high level of P-gp1 using Ras as substrate assessed as inhibition of substrate post-translation processing in presence of 20% human serum by immunoblot analysis; assay type: cell-based
[3] = Cmax in rat at 5 mg/kg, po; assay type: ADME, organism-based; conditions: in vivo
Mus musculus [4] = test: Antiangiogenic activity in human recombinant VEGF-stimulated CF1 mouse corneal model assessed as inhibition of new blood growth area at 50 mg/kg, sc prestimulated with VEGF followed by compound administration and measured on day 7 by slit lamp biomicroscopic analysis relative to control; assay type: functional; conditions: CF1, 168 h, time 7 day
HCT-116 [5] = test: Antitumor activity against human HCT-116 cells xenografted in nu/nu CD1 mouse assessed as reduction in tumor volume by measuring tumor to control ratio at 12.5 mg/kg, sc preinoculated with cells for 5 days followed by once daily compound administration for 21 days and measured on day 25; assay type: functional; conditions: time 25 day
HCT-116 [6] = test: Antitumor activity against human HCT-116 cells xenografted in nu/nu CD1 mouse assessed as increase in life span at 50 mg/kg, sc preinoculated with cells for 5 days followed by once every 2 days compound administration for 11 times and measured on day 22 relative to vehicle in time to 1 cm3 tumor; assay type: functional; conditions: HCT-116, 528 h, time 22 day
Mus musculus [7] = test: Antiangiogenic activity in human recombinant bFGF-stimulated CF1 mouse corneal model assessed as inhibition of new blood growth area at 25 mg/kg, sc prestimulated with bFGF followed by compound administration and measured on day 5 by slit lamp biomicroscopic analysis relative to control; assay type: functional; conditions: CF1, 120 h, time 5 day
[8] = Inhibition of FTase in human HCT-116 cells expressing low level of P-gp1 using Ras as substrate assessed as inhibition of substrate post-translation processing in presence of 20% human serum by immunoblot analysis; assay type: cell-based
HCT-116 [9] = test: Antitumor activity against human HCT-116 cells xenografted in nu/nu CD1 mouse assessed as reduction in tumor volume by measuring tumor to control ratio at 25 mg/kg, sc preinoculated with cells for 5 days followed by once daily compound administration for 21 days and measured on day 25; assay type: functional; conditions: time 25 day
Mus musculus [10] = test: Antiangiogenic activity in human recombinant VEGF-stimulated CF1 mouse corneal model assessed as inhibition of new blood growth area at 25 mg/kg, sc prestimulated with VEGF followed by compound administration and measured on day 7 by slit lamp biomicroscopic analysis relative to control; assay type: functional; conditions: CF1, 168 h, time 7 day
[11] = Oral bioavailability in rat at 25 mg/kg; assay type: ADME, organism-based; conditions: in vivo
HCT-116 [12] = test: Antitumor activity against human HCT-116 cells xenografted in nu/nu CD1 mouse assessed as increase in life span at 100 mg/kg, sc preinoculated with cells for 5 days followed by once every 2 days compound administration for 11 times and measured on day 22 relative to vehicle in time to 1 cm3 tumor; assay type: functional; conditions: HCT-116, 528 h, time 22 day
[13] = Inhibition of recombinant bovine GGTase I incubated for 30 min sin presence of [3H]FPP by SPA based Topcount scintillation plate reader analysis; set-up: species or system Bos taurus
[14] = AUC in dog at 2.5 mg/kg, po; assay type: ADME, organism-based, Canis lupus familiaris; conditions: in vivo
[15] = Oral bioavailability in rat at 5 mg/kg; assay type: ADME, organism-based; conditions: in vivo
HCT-116 [16] = test: Antitumor activity against human HCT-116 cells xenografted in nu/nu CD1 mouse assessed as increase in life span at 50 mg/kg, sc preinoculated with cells for 14 days followed by once daily compound administration for 21 days and measured on day 40 relative to vehicle in time to 1 cm^3 tumor; assay type: functional; conditions: HCT-116, 960 h, time 40 day
HCT-116 [17] = test: Antitumor activity against human HCT-116 cells xenografted in nu/nu CD1 mouse assessed as reduction in tumor volume by measuring test to control ratio at 50 mg/kg, sc preinoculated with cells for 14 days followed by once daily compound administration for 21 days and measured on day 40; assay type: functional; conditions: time 40 day
[18] = Inhibition of FTase in H-Ras transformed mouse NIH3T3 cells using Ras as substrate assessed as inhibition of substrate prenylation in presence of 10% bovine serum by immunoblot analysis; assay type: cell-based
HCT-116 [19] = test: Antitumor activity against human HCT-116 cells xenografted in nu/nu CD1 mouse assessed as increase in life span at 6.25 mg/kg, sc preinoculated with cells for 5 days followed by once daily compound administration for 21 days and measured on day 25 relative to vehicle in time to 1 cm^3 tumor; assay type: functional; conditions: HCT-116, 600 h, time 25 day
[20] = Half-life in dog at 2.5 mg/kg, iv; assay type: ADME, organism-based, Canis lupus familiaris; conditions: in vivo
[21] = Ratio of EC50 for inhibition of FTase in human HCT-116 cells expressing low level of P-gp1 using Ras as substrate assessed as inhibition of substrate post-translation processing in presence of 20% human serum to EC50 for inhibition of FTase in human HCT-116 cells expressing low level of P-gp1 using Ras as substrate assessed as inhibition of substrate post-translation processing in presence of 10% …; conditions: condition cancer
HCT-116 [22] = test: Antitumor activity against human HCT-116 cells xenografted in nu/nu CD1 mouse assessed as tumor volume at 50 mg/kg, sc preinoculated with cells for 5 days followed by once every 2 days compound administration for 11 times and measured on day 22 (reference value: 1557 +/- 370 mm^3); assay type: functional; conditions: time 22 day
[23] = Ratio of EC50 for inhibition of FTase in human DLD-1 cells expressing moderate level of P-gp1 using Ras as substrate assessed as inhibition of substrate post-translation processing in presence of 20% human serum to EC50 for inhibition of FTase in human DLD-1 cells expressing moderate level of P-gp1 using Ras as substrate assessed as inhibition of substrate post-translation processing in presence …; conditions: condition cancer
[24] = Inhibition of FTase in human HCT-15 cells expressing high level of P-gp1 using Ras as substrate assessed as inhibition of substrate post-translation processing in presence of 10% FBS by immunoblot analysis; assay type: cell-based
NIH3T3 [25] = test: Inhibition of VEGF secretion in mouse NIH3T3 cells incubated for 72 hrs ELISA; assay type: functional, cell-based; conditions: dose 0.1-3 µmol/L
HCT-116 [26] = test: Antitumor activity against human HCT-116 cells xenografted in nu/nu CD1 mouse assessed as reduction in tumor volume by measuring tumor to control ratio at 6.25 mg/kg, sc preinoculated with cells for 5 days followed by once daily compound administration for 21 days and measured on day 25; assay type: functional; conditions: time 25 day
[27] = Selectivity ratio of EC50 for inhibition of GGTase in H-Ras transformed mouse NIH3T3 cells using Rap 1A as substrate assessed as inhibition of substrate prenylation in presence of 10% bovine serum to EC50 for inhibition of FTase in H-Ras transformed mouse NIH3T3 cells using Ras as substrate assessed as inhibition of substrate prenylation in presence of 10% bovine serum; conditions: condition cancer
NIH3T3 [28] = test: Inhibition of anchorage-independent growth in H-Ras transformed mouse NIH3T3 cells assessed as inhibition of colony formation incubated for 14 days in presence of 10% bovine serum by imaging based soft agar colony formation assay; assay type: functional, cell-based
HCT-116 [29] = test: Antitumor activity against human HCT-116 cells xenografted in nu/nu CD1 mouse assessed as increase in life span at 25 mg/kg, sc preinoculated with cells for 5 days followed by once daily compound administration for 21 days and measured on day 25 relative to vehicle in time to 1 cm^3 tumor; assay type: functional; conditions: HCT-116, 600 h, time 25 day
HCT-116 [30] = test: Inhibition of VEGF mRNA expression in human HCT-116 cells incubated for 72 hrs by qRT-PCR analysis; assay type: functional, cell-based; conditions: dose 1-30 µmol/L
[31] = AUC in rat at 25 mg/kg, po; assay type: ADME, organism-based; conditions: in vivo
[32] = Clearance in dog at 2.5 mg/kg, iv; assay type: ADME, organism-based, Canis lupus familiaris; conditions: in vivo

Structure (SMILES): Cn1cncc1[C@](O)(COc1ccc(C#N)cc1-c1ccc(OC(F)(F)F)cc1)c1ccc(C#N)cc1 [ABT-100]
- EC50 [1]: 0.43 nM
- EC50 [2]: 1.1 nM
- Cmax [3]: 80 ng/mL
- inhibition in vivo at 50 mg/kg (Mus musculus [4]): 25%
- T/C (HCT-116 [5]): 39%
- ILS at 50 mg/kg (HCT-116 [6]): 32%
- inhibition in vivo at 25 mg/kg (Mus musculus [7]): 32%
- EC50 [8]: 1.7 nM
- T/C (HCT-116 [9]): 32%
- inhibition in vivo at 25 mg/kg (Mus musculus [10]): 8%
- bioavailability [11]: 30.7%
- ILS at 100 mg/kg (HCT-116 [12]): 32%
- IC50 [13]: > 10000 nM
- AUC [14]: 2840 ng·h/mL
- bioavailability [15]: 15.1%
- ILS at 50 mg/kg (HCT-116 [16]): 52%
- T/C (HCT-116 [17]): 45%
- EC50 [18]: 0.73 nM
- ILS at 6.25 mg/kg (HCT-116 [19]): 50%
- half-life [20]: 6.8 h
- Ratio EC50 [21]: 1.5
- Activity (HCT-116 [22]): 873 mm3
- Ratio EC50 [23]: 1.5
- EC50 [24]: 0.2 nM
- inhibition (NIH3T3 [25]): Dose-Dependent Effect
- T/C (HCT-116 [26]): 56%
- Ratio EC50 [27]: >41000
- EC50 (NIH3T3 [28]; NIH3T3, 336 h): 0.9 nM
- inhibition (NIH3T3 [28]; time 14.0 day): Dose-Dependent Effect
- ILS at 25 mg/kg (HCT-116 [29]): 100%
- inhibition (HCT-116 [30]): Dose-Dependent Effect
- AUC [31]: 4620 ng·h/mL
- clearance [32]: 5.67 mL/min/kg
